Assay [1] deals with Human immunodeficiency virus type 1 integrase (Human immunodeficiency virus 1, UniProt Q7ZJM1). Nature of the assay: Inhibition of HIV1 recombinant integrase strand transfer activity.
For assay [2], the system named is Human immunodeficiency virus. Description: Antiviral activity against HIV by pseudo-type HIV assay. Type of assay: functional, organism-based. Particulars: Human immunodeficiency virus 1.

A word on the IC50: it is the concentration that inhibits the measured activity by half. A word on the EC50: it is the concentration giving half of the maximal effect.

Each structure is given as a SMILES string. A value given as a limit tells only on which side of the number the result lay.

Sequence of Human immunodeficiency virus type 1 integrase (Q7ZJM1 whole entry): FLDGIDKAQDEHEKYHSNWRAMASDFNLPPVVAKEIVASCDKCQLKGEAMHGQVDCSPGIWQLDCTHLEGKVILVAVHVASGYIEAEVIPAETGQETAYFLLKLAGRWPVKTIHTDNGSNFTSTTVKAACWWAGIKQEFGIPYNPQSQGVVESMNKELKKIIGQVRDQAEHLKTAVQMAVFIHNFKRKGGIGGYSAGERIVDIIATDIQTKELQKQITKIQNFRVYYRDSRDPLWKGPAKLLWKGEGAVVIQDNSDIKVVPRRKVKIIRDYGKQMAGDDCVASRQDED

For the compound `Oc1c(-c2noc(Cc3ccccc3)n2)ncc2cccnc12`, in assay [1], the concentration for half-maximal inhibition (IC50) amounted to 950 nM. Further, in assay [2], a half-maximal effect (EC50) was put at 1900 nM. `O=S1(=O)CCCCN1c1nc(-c2noc(Cc3ccc(F)cc3)n2)c(O)c2ncccc12`: the IC50 in assay [1] was more than 100000 nM. Consider `Oc1c(-c2nnc(Cc3ccccc3)[nH]2)ncc2cccnc12`, for which the concentration for half-maximal inhibition (IC50) in assay [1] worked out at 360 nM. Moreover, a half-maximal response in assay [2] (EC50) required 8700 nM. In turn, `O=C(NCc1ccc(F)cc1)c1nc(N2CCCCS2(=O)=O)c2cccnc2c1O` returned a concentration giving a half-maximal response (EC50) in assay [2] of 2 nM. As for `O=C(NCc1ccc(F)cc1)c1ncc2cccnc2c1O`, the half-inhibitory concentration (IC50) in assay [1] turned out to be 12 nM. In assay [2], this compound gave a concentration giving a half-maximal response (EC50) of 75 nM. On to `Cn1nc(Cc2ccc(F)cc2)nc1-c1ncc2cccnc2c1O`, for which the 50% inhibitory concentration (IC50) in assay [1] is more than 500000 nM. As to `COc1cccc(Cc2nnc(-c3ncc4cccnc4c3O)[nH]2)c1`, in assay [1], the IC50 is 2800 nM. In assay [2], this compound had an EC50 of more than 35000 nM. Take `Oc1c(-c2nnc(Cc3ccccc3)o2)ncc2cccnc12`: in assay [1], the half-inhibitory concentration (IC50) is 130 nM. Also, in assay [2], it took 420 nM to reach a half-maximal effect (EC50).

For `Oc1c(-c2nnc(Cc3cccc(Cl)c3)[nH]2)ncc2cccnc12`, the half-inhibitory concentration (IC50) in assay [1] stood at 1030 nM. In assay [2], the EC50 came to 1000 nM. Consider `Oc1c(-c2nnc(Cc3cccnc3)[nH]2)ncc2cccnc12`, for which the IC50 in assay [1] stood at 3500 nM. The same compound had an EC50 in assay [2] of 6400 nM.

`Oc1c(-c2nnc(Cc3ccc(Cl)cc3)[nH]2)ncc2cccnc12`: in assay [1], the 50% inhibitory concentration (IC50) worked out at 640 nM. Moreover, the response in assay [2] was half-maximal at 1000 nM (EC50). The corresponding values for `Oc1c(-c2nnc(Cc3ccc(F)cc3)[nH]2)ncc2cccnc12` are 130 nM and 320 nM. As for `Cn1nc(-c2ncc3cccnc3c2O)nc1Cc1ccc(F)cc1`, the IC50 in assay [1] was determined as 7900 nM.

As for `COc1ccc(Cc2nnc(-c3ncc4cccnc4c3O)[nH]2)cc1OC`, the IC50 in assay [1] amounted to 6300 nM. The compound further registered a concentration giving a half-maximal response (EC50) in assay [2] of more than 35000 nM. In the case of `Oc1c(-c2noc(-c3ccccc3)n2)ncc2cccnc12`, the half-maximal inhibitory concentration (IC50) in assay [1] was more than 100000 nM. Consider `Oc1c(-c2noc(Cc3ccc(F)cc3)n2)ncc2cccnc12`, for which the IC50 in assay [1] is 130 nM. The EC50 in assay [2] came to 220 nM.

In the case of `Oc1c(-c2nnc(Cc3ccncc3)[nH]2)ncc2cccnc12`, the IC50 in assay [1] came out at 4600 nM. In assay [2], this compound gave an EC50 of more than 35000 nM. For the compound `Oc1c(-c2nnc(CCc3ccccc3)[nH]2)ncc2cccnc12`, the 50% inhibitory concentration (IC50) in assay [1] came to 2400 nM. In assay [2], this compound displayed an EC50 of more than 20000 nM. `O=S1(=O)CCCCN1c1nc(-c2nnc(Cc3ccc(F)cc3)[nH]2)c(O)c2ncccc12`: the IC50 in assay [1] stood at 11 nM. The compound also showed an EC50 in assay [2] of 240 nM. On to `Oc1c(-c2nnc(Cc3ccc(F)cc3)o2)ncc2cccnc12`, for which, in assay [1], the 50% inhibitory concentration (IC50) is 42 nM. It took 130 nM to reach a half-maximal effect in assay [2] (EC50). In the case of `O=S1(=O)CCCCN1c1nc(-c2nnc(Cc3ccc(F)cc3)o2)c(O)c2ncccc12`, in assay [1], the half-maximal inhibitory concentration (IC50) was 2 nM. In addition, a half-maximal response in assay [2] (EC50) required 13 nM.

The record behind these values is ChEMBL document CHEMBL1153294, “The use of oxadiazole and triazole substituted naphthyridines as HIV-1 integrase inhibitors. Part 1: Establishing the pharmacophore” (Bioorg Med Chem Lett, 2009).
